What was measured:
[1] = tested on: β-adrenergic; test: β-adrenergic blocking activity in mammals; type: in vivo; conditions: mammals such as mice, rats and cats
Source text: It is also to be expected that the above compound will have similar effects when administered to humans.

[2] = Acute toxicity (Litchfield and Wilcoxon); conditions: in vivo
Experimental: The acute toxicity of the inventive compound is determined by the method of Litchfield and Wilcoxon (J. Pharmacol. exp. Therap., 96 (1949), 99).

[3] = tested on: isoprenalin-induced tachycardia; test: Inhibition of isoprenalin-induced tachycardia in anaesthetized cats; type: in vivo, cat; conditions: for ED50: Felis catus, iv, graphic extrapolation on dose-effect curve, read-out: ED50 (reduction of isoprenalin-induced tachycardia by 50%)
Experimental: A comparative screening test was conducted on anaestetized cats suffering from isoprenalin-induced tachycardia.
(§1) To provide an informative determination of the ED50 of the test preparation on isoprenalin-induced tachycardia of anaesthetized cats as well as qualitative determination of the characteristic effect of the preparation on blood pressure and heart beat frequency in resting position.
3.2 Test animals: male and female cats,
weighing 1.6 to 3.2 kg, un-
(§2) Anaesthetic: hexobarbital (Evipan-Na),
Respiration: spontaneous after tracheo-
femoralis for injection of
the test preparations; ca-
(§3) theterization of A. femo-
(§4) ralis for measuring arterial
(§5) blood pressure; blood coagu-
sodium heparinate, 600 units
(§6) phase and mean blood press-
(§7) ure, using a Statham press-
(§8) ure gauge and an HSE elec-
(§9) tromanometer; heart frequency
(§10) by means of the pulse wave
(§11) interval, using an HSE-EKA
(§12) sphygmograph or HSE frequency
3.3.2 Administration of the
Isoprenalin: i.v. injection; dose 0.3 to
1 μg/kg; volume administer-
ed: 0.1 ml/kg; intervals bet-
ween injections; 10 min.
i.v. injections, each 4 min.
prior to the next isoprenalin
injection; dosage range: 10
to 100 μg/kg and, respect.,
injection time: 10 sec.
3.3.3 Criteria determining
percentage reduction in iso-
prenalin-induced tachycardia;
measured at maximum efficien-
cy (4 min. after injection).
ED50 is determined by graph-
ic extrapolation on the
curves showing the effect-
iveness of the dose admini-
stered. ED50 means the dose
(μg/kg i.v.) required for
reducing tachycardia by
50% as compared to the ori-
Table 1 informs on the results of the above experiments. The quantitative criteria in this table are: reduction of isoprenalin-induced tachycardia in percent; ED50 determined by graphic extrapolation on the curve showing the effectiveness of the respective dose; and relative activity which may be calculated as quotient from the ED50 (μg/kg) of propranolol and the ED50 of the test preparation.

[4] = tested on: heart beat frequency in resting position; test: Effect on heart beat frequency in resting position in anaesthetized cats; type: in vivo, cat; conditions: for HR norm (bradycardial effect, heart beat frequency in resting position): anaesthetized cats, i.v., qualitative, 10 to 100 ug/kg
Source text: as §1, §2, §9, §10, §11, §12
(§13) The remaining data in the table refer to the characteristic effect of the test preparation on the heart beat frequency in resting position, arterial blood pressure in resting position, and reduction of isoprenalin-induced drop in blood pressure; the respective data are more of qualitative nature.

[5] = tested on: isoprenalin-induced drop in arterial blood pressure; test: Reduction of isoprenalin-induced drop in arterial blood pressure in anaesthetized cats; type: in vivo, cat; conditions: for m BP Isopr. (reduction in mean, isoprenalin-induced drop in arterial blood pressure): i.v., qualitative, 10 to 100 ug/kg; for isoprenalin-induced drop in arterial blood pressure: summary in words
[6] = tested on: mean arterial blood pressure in resting position; test: Effect on mean arterial blood pressure in resting position in anaesthetized cats; type: in vivo, cat; conditions: i.v., qualitative, 10 to 100 ug/kg
Source text: as §1, §2, §3, §4, §5, §6, §7, §8, §9, §13

| Structure (SMILES) | β-adrenergic blocking activity [1] | LD50 ([2]; ip, mouse, female and male, in each case 10 female and male mice) [mg/kg] | LD50 ([2]; iv, mouse, female and male, in each case 10 female and male mice) [mg/kg] | LD50 ([2]; po, mouse, female and male, in each case 10 female and male mice) [mg/kg] | LD50 ([2]; rat, ip, female and male) [mg/kg] | LD50 ([2]; rat, iv, female) [mg/kg] | LD50 ([2]; rat, iv, male) [mg/kg] | LD50 ([2]; rat, po, female and male) [mg/kg] | ED50 ([3]; anaesthetized cats) [mg/kg] | Rel. Activity (ED50 of propranolol / ED50 of test preparation) ([3]; based on ED50 of propranolol (=1)) | beta-blocking activity in the tests on isoprenalin-induced tachycardia ([3]; compared to propranolol, anaesthetized cats) | HR norm (bradycardial effect, heart beat frequency in resting position) [4] | reduction of frequency of heart beat in resting position ([4]; depending on the original position and the dose administered) | m BP Isopr. (reduction in mean, isoprenalin-induced drop in arterial blood pressure) [5] | isoprenalin-induced drop in arterial blood pressure [5] | m BP norm (effectiveness in lowering blood pressure, mean arterial pressure in resting position) [6] |
| --- | --- | --- | --- | --- | --- | --- | --- | --- | --- | --- | --- | --- | --- | --- | --- | --- |
| Cc1ccc([N+](=O)[O-])c(OCC(O)CNC(C)C)c1.Cl (centres unmarked) [Compound of the invention, 1-(5-methyl-2-nitrophenoxy)-2-hydroxy-3-isopropylaminopropane-hydrochloride] | demonstrated | 250 | 105 | 1280 | 192 | 68.9 | 80 | 1120 | 0.021 | 2.3 | good beta-blocking activity | + - +++ and d.d. | effectively reduced | + - +++R and d.d. | reliably reduced and blocked | – |
| CC(C)NCC(O)COc1cccc2ccccc12 (centres unmarked) [Propranolol, reference compound] | – | – | – | – | – | – | – | – | 0.048 | – | – | + - +++ and d.d. | – | + - +++R and d.d. | reliably reduced and blocked | + - ++ and d.d. |

Source: US4371545A, “Isopropyl amine compounds” (Dolorgiet Beteiligungs GmbH, priority 1978, dated 1983)
